Data taken from article PMC11530827, “Characterization of a cytochrome P450 that catalyzes the O-demethylation of lignin-derived benzoates” (The Journal of Biological Chemistry, 2024).

Legend:
PbdA S237A [1] = target: T1, PbdA S237A (Rhodococcus jostii, UniProt Q0SCI3, S235A); assay: Substrate binding to PbdA S237A variant by spectral titration; design: species or system Rhodococcus jostii RHA1
T1 construct: hexaHis (N, cleaved yes); made in house; host or cells: PbdA variant: E. coli BL-21 λ (DE3); PbdB: Rhodococcus jostii RHA1
T1 sequence (Q0SCI3 entry or part of it S235A): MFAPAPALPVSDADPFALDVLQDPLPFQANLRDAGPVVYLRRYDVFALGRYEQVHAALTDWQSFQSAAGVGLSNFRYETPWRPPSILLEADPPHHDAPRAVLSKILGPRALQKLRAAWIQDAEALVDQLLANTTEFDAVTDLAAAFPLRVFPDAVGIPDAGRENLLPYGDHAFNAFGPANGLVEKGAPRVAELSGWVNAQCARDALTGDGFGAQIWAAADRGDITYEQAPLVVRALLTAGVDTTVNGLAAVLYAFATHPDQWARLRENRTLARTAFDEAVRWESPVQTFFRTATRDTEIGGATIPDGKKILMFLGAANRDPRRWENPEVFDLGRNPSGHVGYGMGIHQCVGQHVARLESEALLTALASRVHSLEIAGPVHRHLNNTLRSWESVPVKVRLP
Experimental: (§1) UV-visible spectroscopy was conducted with a Cary 60 spectrophotometer equipped with a thermostatted cuvette holder at 25 °C. Scans of purified proteins diluted in 20 mM Mops, I = 0.1 M, pH 7.2 were taken between 250 and 700 nm. Heme concentration was calculated as described previously ([35]). Carbon monoxide binding was determined by reduction of PbdA diluted in 20 mM Mops, I = 0.1 M, pH 7.2 as above by a few grains of […]. CO was bubbled into the reduced enzyme for approximately 60 s at a rate of one bubble per second. Dissociation constants (Kd) were determined by titration of ligands diluted into enzyme buffer from 1 M stocks prepared in dimethyl sulfoxide into PbdA diluted in 20 mM Mops, I = 0.1 M, pH 7.2. Spectra take upon addition of substrate were subtracted from the spectrum of the enzyme, and peak-to-trough distance was plotted by ligand concentration. Kd values were determined by fitting a hyperbolic equation to the data as described previously ([23], [36]). The proportion of high-spin heme iron was determined using the approximate peak-to-trough extinction coefficient (ε ≈ 100 mM^−1 cm^−1) ([36]).

PbdA S87A [2] = target: T2, PbdA S87A (Rhodococcus jostii, UniProt Q0SCI3, S85A); assay: Substrate binding to PbdA S87A variant by spectral titration; design: species or system Rhodococcus jostii RHA1
T2 construct: hexaHis (N, cleaved yes); made in house; host or cells: PbdA variant: E. coli BL-21 λ (DE3); PbdB: Rhodococcus jostii RHA1
T2 sequence (Q0SCI3 entry or part of it S85A): as the sequence (Q0SCI3 entry or part of it S235A) above, with S85A, A235S counted along it
Experimental: as §1

PbdA S87A [3] = target: T2, PbdA S87A; assay: Activity and coupling assay of PbdA S87A variant with PbdB; format: biochemical, Rhodococcus jostii RHA1
Experimental: (§2) For activity measurements 0.25 to 1 μM of PbdA and PbdB were combined in a 200 μl cuvette in 20 mM Mops, pH 7.2 with substrate diluted in the same buffer. NADH was added to 350 μM to initiate the reaction. For HPLC analysis, enzymatic reactions were acidified by adding acetic acid to 10% final concentration, centrifuged (16,000×g for 10 min), and filtered through a 0.2 μm polytetrafluoroethylene membrane. Samples were run over a Luna 5 μm C18(2) 100 Å 150 × 3 mm column (Phenomenex) at 0.7 ml min^−1 by a Waters 2695 separation HPLC module. Samples were eluted with a 16.8 ml linear gradient from 1% methanol plus 0.1% formic acid in water to 100% methanol plus 0.1% formic acid and monitored at 280 nm with a Waters 2996 photodiode array detector. Concentrations were determined by interpolation on a standard curve of 0 to 1 mM of authentic standard. NADH concentration was measured by absorbance at 340 nm, ε = 6.22 mM^-1 cm^-1. Coupling was calculated from the ratio of rate of aromatic turnover, as determined by HPLC, and the rate of NADH oxidation, determined spectroscopically. Buffer ionic strength was adjusted by addition of NaCl, as appropriate. Apparent steady-state kinetic parameters were calculated by fitting Michaelis–Menten equations to initial velocity of reactions at various concentrations of aromatic substrate (LEONORA).
(§3) ^aExperiments were performed using air-saturated MOPS (I = 0.1 M), pH 7.2, at 25 °C. The rate of aromatic substrate turnover was based on the appearance of O-demethylated product. Standard deviation is shown in parentheses.

PbdA R84M [4] = target: T3, PbdA R84M (Rhodococcus jostii, UniProt Q0SCI3, R82M); assay: Substrate binding to PbdA R84M variant by spectral titration; design: species or system Rhodococcus jostii RHA1
T3 construct: hexaHis (N, cleaved yes); made in house; host or cells: PbdA variant: E. coli BL-21 λ (DE3); PbdB: Rhodococcus jostii RHA1
T3 sequence (Q0SCI3 entry or part of it R82M): as the sequence (Q0SCI3 entry or part of it S235A) above, with R82M, A235S counted along it
Experimental: as §1

PbdA R84M [5] = target: T3, PbdA R84M; assay: Activity and coupling assay of PbdA R84M variant with PbdB; format: biochemical, Rhodococcus jostii RHA1
Experimental: as §2, §3

PbdA S237A [6] = target: T1, PbdA S237A; assay: Activity and coupling assay of PbdA S237A variant with PbdB; format: biochemical, Rhodococcus jostii RHA1
Experimental: as §2, §3

PbdA = target: T4, PbdA (Rhodococcus jostii, UniProt Q0SCI3); assay: Substrate binding to PbdA (WT) by type I spectral shift titration; design: hexaHis (N, cleaved yes); made in house; host or cells: PbdA: E. coli BL-21 λ (DE3); PbdB: Rhodococcus jostii RHA1; settings: WT PbdA
T4 sequence (Q0SCI3 1-400): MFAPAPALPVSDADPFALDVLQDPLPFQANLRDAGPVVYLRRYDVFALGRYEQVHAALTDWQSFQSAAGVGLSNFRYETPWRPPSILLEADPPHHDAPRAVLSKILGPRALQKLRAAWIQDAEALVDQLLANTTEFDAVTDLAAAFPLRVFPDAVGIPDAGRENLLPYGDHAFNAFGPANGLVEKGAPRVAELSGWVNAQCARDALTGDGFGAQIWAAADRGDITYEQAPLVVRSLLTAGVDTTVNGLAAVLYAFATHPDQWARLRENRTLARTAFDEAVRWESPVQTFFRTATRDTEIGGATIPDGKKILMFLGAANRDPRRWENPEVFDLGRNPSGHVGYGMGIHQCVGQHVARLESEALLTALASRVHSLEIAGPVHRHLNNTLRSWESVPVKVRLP
Experimental: The affinity of PbdA for various LDACs was measured by the type I spectral shift upon titration of aromatic compound (Fig. 2). This shift occurs as the compound displaces a water coordinated to the heme iron, initiating a spin state transition in the latter from a low spin, hexacoordinate, to a high spin, pentacoordinate form.
Figure 2 Substrate binding of PbdA. A, difference spectra of PbdA titrated with 1 to 50 μM p-MBA from the substrate-free enzyme. Darker colors indicate higher concentration of p-MBA. Spectra were collected after each addition of substrate to 1 μM enzyme in 20 mM Mops, I = 0.1 M, pH 7.2. B, binding isotherm of PbdA and p-MBA. The fitted curve represents a simple hyperbola. p-MBA, para-methoxybenzoate.
as §1

[7] = air-saturated MOPS (I = 0.1 M), pH 7.2, 25 °C
[8] = appearance of O-demethylated product

Q: `COc1ccc(C(=O)O)cc1` [p-MBA, p-methoxybenzoate] was tested. Which Kd (PbdA S237A [1]) did it give?
A: 29 µM

Q: What about the “ΔG°” value (PbdA S237A [1]; S237A variant, binding energy) of the same molecule?
A: -6.2 kcal/mol

Q: And the “ΔΔG°” value (PbdA S237A [1]; S237A variant, comparison of ΔG° of variant to wild type)?
A: 1.2 kcal/mol

Q: And the Kd (PbdA S87A [2])?
A: 50 µM

Q: And the “ΔG°” value (PbdA S87A [2]; S87A variant, binding energy)?
A: -5.9 kcal/mol

Q: What about the “ΔΔG°” value (PbdA S87A [2]; S87A variant, comparison of ΔG° of variant to wild type) of the same molecule?
A: 1.5 kcal/mol

Q: What about the Coupling (PbdA S87A [3]) of the same molecule?
A: 45 (7) %

Q: And the Specific activity (PbdA S87A [3]; O-demethylation)?
A: 800 (200) U μg P450^-1

Q: What about the NADH depletion rate (PbdA S87A [3]; [7]) of the same molecule?
A: 1700 (200) U mg P450^-1

Q: And the “Rate of Aromatic turnover” value (PbdA S87A [3]; [8])?
A: 800 (200) U mg P450^-1

Q: What about the Kd (PbdA R84M [4]) of the same molecule?
A: 36 µM

Q: What about the “ΔG°” value (PbdA R84M [4]; R84M variant, binding energy) of the same molecule?
A: -6.1 kcal/mol

Q: And the “ΔΔG°” value (PbdA R84M [4]; R84M variant, comparison of ΔG° of variant to wild type)?
A: 1.3 kcal/mol

Q: And the Coupling (PbdA R84M [5])?
A: 70 (9) %

Q: And the Specific activity (PbdA R84M [5]; O-demethylation)?
A: 1100 (200) U μg P450^-1

Q: And the NADH depletion rate (PbdA R84M [5]; [7])?
A: 1700 (200) U mg P450^-1

Q: What about the “Rate of Aromatic turnover” value (PbdA R84M [5]; [8]) of the same molecule?
A: 1100 (200) U mg P450^-1

Q: And the Coupling (PbdA S237A [6])?
A: 80 (2) %

Q: And the Specific activity (PbdA S237A [6]; O-demethylation)?
A: 2600 (400) U μg P450^-1

Q: What about the NADH depletion rate (PbdA S237A [6]; [7]) of the same molecule?
A: 3600 (600) U mg P450^-1

Q: And the “Rate of Aromatic turnover” value (PbdA S237A [6]; [8])?
A: 2600 (400) U mg P450^-1

Q: What about the Kd (PbdA; 20 mM Mops, I = 0.1 M, pH 7.2, 25 °C, SD in parentheses, read-out: Kd) of the same molecule?
A: 3.8 µM

Q: And the “%High-spin (percent of heme iron in high-spin state)” value (PbdA; on substrate binding)?
A: >99%
